Measurements reported in US20250177396A1, “POLO-LIKE KINASE 4 (PLK4) INHIBITORS, PHARMACEUTICAL COMPOSITIONS, METHODS OF PREPARATION AND USES THEREOF” (Repare Therapeutics Inc., priority 2022, published 2025).

target: T1, PLK4 (Homo sapiens, UniProt O00444); assay: PLK4 NanoBRET target engagement assay; assay type: binding; conditions: HEK293 T cells transfected with PLK4 NanoLuc fusion vector; K-5 tracer; 2 hrs incubation
T1 construct: expressed in transfected cells; host or cells: HEK293 T cells (ATCC CRL-3216)
T1 sequence (O00444 1-970): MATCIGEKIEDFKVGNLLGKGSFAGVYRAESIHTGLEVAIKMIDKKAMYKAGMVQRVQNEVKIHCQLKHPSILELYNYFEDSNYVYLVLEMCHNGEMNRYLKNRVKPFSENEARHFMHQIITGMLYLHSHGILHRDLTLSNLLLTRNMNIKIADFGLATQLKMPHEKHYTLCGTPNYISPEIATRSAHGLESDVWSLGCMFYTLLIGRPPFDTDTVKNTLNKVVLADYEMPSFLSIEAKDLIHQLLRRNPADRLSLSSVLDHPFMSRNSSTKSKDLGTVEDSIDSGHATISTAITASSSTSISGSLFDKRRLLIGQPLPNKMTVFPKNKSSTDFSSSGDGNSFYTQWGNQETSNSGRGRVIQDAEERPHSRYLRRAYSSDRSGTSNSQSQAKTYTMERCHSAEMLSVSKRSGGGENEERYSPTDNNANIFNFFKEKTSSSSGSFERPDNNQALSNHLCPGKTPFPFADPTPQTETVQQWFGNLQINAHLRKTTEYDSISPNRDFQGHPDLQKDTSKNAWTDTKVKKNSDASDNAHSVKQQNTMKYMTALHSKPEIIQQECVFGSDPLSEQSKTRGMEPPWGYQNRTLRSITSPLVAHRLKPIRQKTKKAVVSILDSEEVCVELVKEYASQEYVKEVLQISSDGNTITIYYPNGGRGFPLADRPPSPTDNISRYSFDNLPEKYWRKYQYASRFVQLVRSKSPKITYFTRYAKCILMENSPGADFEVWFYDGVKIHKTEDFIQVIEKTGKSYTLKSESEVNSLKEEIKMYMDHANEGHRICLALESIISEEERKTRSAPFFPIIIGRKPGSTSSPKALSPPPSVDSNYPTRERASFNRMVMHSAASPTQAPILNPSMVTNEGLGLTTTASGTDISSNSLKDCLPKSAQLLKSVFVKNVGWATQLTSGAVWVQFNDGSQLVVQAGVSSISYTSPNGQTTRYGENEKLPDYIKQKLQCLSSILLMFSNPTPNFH
Procedure: To determine the affinity of Compounds described herein in the PLK4 NanoBRET target engagement assay, HEK293 T cells (ATCC Product Number CRL-3216) are first transfected with the PLK4 NanoLuc fusion vector DNA and Transfection carrier DNA using the Fugene HD Transfection reagent in Opti-MEM No Phenol Red buffer. After an overnight incubation in a 37° C./5% CO2 incubator, the transfected HEK293 T cells are trypsinized, counted, and resuspended in Opti-MEM No Phenol Red buffer at a concentration of 200000 cells/mL. White 96-well plates are then plated with 85 μL of cells (17000 cells/well) to which 5 μL of the 20×K-5 tracer solution diluted in tracer dilution buffer is added. Finally, 10 μL of the 10× compounds are added and the plates and then incubated in a 37° C./5% CO2 incubator for 2 hrs. After the incubation, a 50 uL 3× solution of the substrate/inhibitor mix is added to the cells. The plate is then transferred in the Envision plate reader where the Acceptor emission (610 nm) and the Donor emission (450 nm) are measured.
The IC50 of compounds is determined as follows: • 1. The ratio between the Acceptor emission (610 nm)/Donor emission (450 nm) is calculated. • 2. This ratio is then multiplied by 1000 to obtain the mBRET units (multiplying by 1000 is an arbitrary step that simply makes the data easier to interpret; it has no impact on the data set itself) • 3. The mBRET units are then used in Scigilian Analyze software (https://analyze.scigilian.io) to determine the IC50 value using a 4-parameter fit analysis.

Point of comparison: `COc1c(Nc2cc(C)[nH]n2)nc(N(C)c2ccc(S(=O)(=O)C(C)(C)C)cc2F)nc1-c1cnn(C)c1` [Compound 76], IC50 0.046 µM. Against it:
- COc1c(Nc2cc(C)[nH]n2)nc(Oc2ccc(S(C)(=O)=O)cc2Cl)nc1-c1cnn(C)c1 [Compound 34] — 20-fold higher, 0.9 µM
- COc1c(Nc2cc(C)[nH]n2)nc(Oc2ccc(Br)c(C#N)c2)nc1-c1cnn(C)c1 [Compound 36] — 150-fold higher, 7 µM
- COc1c(Nc2cc(C)[nH]n2)nc(Nc2ccc(S(C)(=O)=O)cc2)nc1-c1cnn(C)c1 [Compound 37] — 12-fold higher, 0.55 µM
- Cc1cc(Nc2nc(N(C)c3c(F)cc(S(C)(=O)=O)cc3F)nc(-c3cn[nH]c3)c2C2CC2)n[nH]1 [Compound 40] — 4.6-fold lower, 0.01 µM
- COc1c(Nc2cc(C)[nH]n2)nc(N(C(C)=O)c2ccc(S(C)(=O)=O)cc2F)nc1-c1cnn(C)c1 [Compound 41] — 15-fold higher, 0.68 µM
- Cc1cc(Nc2nc(N(C)c3ccc(S(C)(=O)=O)cc3F)nc(-c3cnn(C)c3)c2C)n[nH]1 [Compound 42] — 3.3-fold lower, 0.014 µM
- Cc1cc(Nc2nc(N(C)c3ccc(S(C)(=O)=O)cc3F)nc(-c3cnnn3C)c2C2CC2)n[nH]1 [Compound 43] — 3.9-fold higher, 0.18 µM
- Cc1cc(Nc2nc(N(C)c3ccc(S(C)(=O)=O)cc3F)nc(-c3ncc(C)s3)c2C2CC2)n[nH]1 [Compound 44] — 5.2-fold higher, 0.24 µM
- Cc1csc(-c2nc(N(C)c3ccc(S(C)(=O)=O)cc3F)nc(Nc3cc(C)[nH]n3)c2C2CC2)n1 [Compound 45] — 3-fold higher, 0.14 µM
- COc1c(Nc2cc(C)[nH]n2)nc(N(C)c2ccc(CN3CCOC3=O)cc2)nc1-c1cnn(C)c1 [Compound 46] — 2.4-fold higher, 0.11 µM
- COc1c(Nc2cc(C)[nH]n2)nc(N(C)c2ccc(CS(C)(=O)=O)cc2)nc1-c1cnn(C)c1 [Compound 47] — 50-fold higher, 2.3 µM
- Cc1cc(Nc2nc(N(C)c3ccc(S(C)(=O)=O)cc3Cl)nc(-c3ccn(C)n3)c2C2CC2)n[nH]1 [Compound 48] — within 1.5-fold, 0.05 µM
- COc1c(Nc2cc(C)[nH]n2)nc(N(C)c2ccc(S(C)(=O)=O)c(F)c2F)nc1-c1cnn(C)c1 [Compound 49] — within 1.5-fold, 0.054 µM
- COc1c(Nc2cc(C)[nH]n2)nc(N(C)c2ccc(CN(C(C)=O)c3ccccc3)cc2F)nc1-c1cnn(C)c1 [Compound 50] — 17-fold higher, 0.77 µM
- CCCS(=O)(=O)c1ccc(N(C)c2nc(Nc3cc(C)[nH]n3)c(OC)c(-c3cnn(C)c3)n2)cc1 [Compound 51] — 4.8-fold higher, 0.22 µM
- COc1c(Nc2cc(C)[nH]n2)nc(N(C)c2ccc(CN(C)C(=O)c3ccccc3)cc2F)nc1-c1cnn(C)c1 [Compound 52] — 6.3-fold higher, 0.29 µM
- Cc1cc(Nc2nc(N(C)c3ccc(S(C)(=O)=O)cc3Br)nc(-c3cnn(C)c3)c2C2CC2)n[nH]1 [Compound 53] — within 1.5-fold, 0.063 µM
- COc1c(Nc2cc(C)[nH]n2)nc(N(C)c2ccc(S(C)(=O)=O)nc2C)nc1-c1cnn(C)c1 [Compound 54] — 46-fold higher, 2.1 µM
- COc1c(Nc2cc(C)[nH]n2)nc(N(C)c2ccc(S(=O)(=O)CC(C)C)cc2)nc1-c1cnn(C)c1 [Compound 55] — 7-fold higher, 0.32 µM
- Cc1cc(Nc2nc(N(C)c3ccc(S(C)(=O)=O)cc3C)nc(-c3cnn(C)c3)c2C2CC2)n[nH]1 [Compound 56] — 2.8-fold higher, 0.13 µM
- COc1c(Nc2cc(C)[nH]n2)nc(N(C)c2ccc(S(C)(=O)=O)nc2)nc1-c1cnn(C)c1 [Compound 58] — 24-fold higher, 1.1 µM
- COc1c(Nc2cc(C)[nH]n2)nc(N(C)c2ccc(-c3ccnn3C)cc2)nc1-c1cnn(C)c1 [Compound 59] — 6.1-fold higher, 0.28 µM
- Cc1cc(Nc2nc(N(C)c3ccc(S(C)(=O)=O)cc3F)nc(-c3ccn(C)n3)c2C(C)C)n[nH]1 [Compound 60] — higher, > 5 µM
- COc1c(Nc2cc(C)[nH]n2)nc(N(C)c2ccc(C(C)(C)C#N)cc2)nc1-c1cnn(C)c1 [Compound 61] — 2.2-fold higher, 0.1 µM
- Cc1cc(Nc2nc(N(C)c3ccc(S(C)(=O)=O)cc3F)nc(-c3cnn(C4CN(S(C)(=O)=O)C4)c3)c2C2CC2)n[nH]1 [Compound 62] — 1.6-fold lower, 0.028 µM
- COc1c(Nc2cc(C)[nH]n2)nc(N(C)c2ccc(C#N)cc2F)nc1-c1cnn(C)c1 [Compound 63] — 6.1-fold higher, 0.28 µM
- COc1c(Nc2cc(C)[nH]n2)nc(N(C)c2ccc(Cn3ccnc3)cc2F)nc1-c1cnn(C)c1 [Compound 64] — within 1.5-fold, 0.059 µM
- COc1c(Nc2cc(C)[nH]n2)nc(N(C)c2cc3c(cc2F)OCO3)nc1-c1cnn(C)c1 [Compound 65] — 18-fold higher, 0.82 µM
- COCCCS(=O)(=O)c1ccc(N(C)c2nc(Nc3cc(C)[nH]n3)c(OC)c(-c3cnn(C)c3)n2)cc1 [Compound 67] — 5.9-fold higher, 0.27 µM
- COc1c(Nc2cc(C)[nH]n2)nc(N(C)c2ccc3c(c2)CCS3(=O)=O)nc1-c1cnn(C)c1 [Compound 68] — 22-fold higher, 1 µM
- COc1c(Nc2cc(C)[nH]n2)nc(N(C)c2ccc(Oc3nccs3)cc2)nc1-c1cnn(C)c1 [Compound 69] — 15-fold higher, 0.7 µM
- CCS(=O)(=O)c1ccc(N(C)c2nc(Nc3cc(C)[nH]n3)c(OC)c(-c3cnn(C)c3)n2)cc1 [Compound 70] — 3.7-fold higher, 0.17 µM
- COc1c(Nc2cc(C)[nH]n2)nc(N(C)c2cccc(C(=O)N(C)C)c2F)nc1-c1cnn(C)c1 [Compound 71] — 16-fold higher, 0.74 µM
- COc1c(Nc2cc(C)[nH]n2)nc(N(C)c2ccc(-c3nnc(C)o3)cc2)nc1-c1cnn(C)c1 [Compound 72] — 18-fold higher, 0.82 µM
- COc1ccc(F)c(N(C)c2nc(Nc3cc(C)[nH]n3)c(OC)c(-c3cnn(C)c3)n2)c1 [Compound 74] — 26-fold higher, 1.2 µM
- COc1c(Nc2cc(C)[nH]n2)nc(N(C)c2ccc(Br)cc2F)nc1-c1cnn(C)c1 [Compound 75] — 13-fold higher, 0.6 µM
- COc1c(Nc2cc(C)[nH]n2)nc(N(CCN(C)C)c2ccc(S(C)(=O)=O)cc2F)nc1-c1cnn(C)c1 [Compound 77] — 13-fold higher, 0.58 µM
- COc1c(Nc2cc(C)[nH]n2)nc(N(C)c2cccc(S(C)(=O)=O)c2)nc1-c1cnn(C)c1 [Compound 78] — 98-fold higher, 4.5 µM
- COc1c(Nc2cc(C)[nH]n2)nc(N(C)c2ccc([S+](C)[O-])cc2)nc1-c1cnn(C)c1 (stereo not shown) [Compound 79] — 50-fold higher, 2.3 µM
- COc1c(Nc2cc(C)[nH]n2)nc(N(C)c2ccc(-c3nccs3)cc2)nc1-c1cnn(C)c1 [Compound 80] — 20-fold higher, 0.91 µM
- Cc1cc(Nc2nc(N(C)c3ccc(S(=O)(=O)C(C)C)cc3)nc(-c3cnn(C)c3)c2C2CC2)n[nH]1 [Compound 81] — 1.6-fold higher, 0.073 µM
- Cc1cc(Nc2nc(N(C)c3ccc(S(=O)(=O)C(C)(C)C)cc3)nc(-c3cnn(C)c3)c2C2CC2)n[nH]1 [Compound 82] — within 1.5-fold, 0.065 µM
- COc1c(Nc2cc(C)[nH]n2)nc(N(C)c2ccc(S(C)(=O)=O)cc2)nc1-c1cnn(C)c1 [Compound 83] — 4.1-fold higher, 0.19 µM
- COc1c(Nc2cc(C)[nH]n2)nc(N(c2ccc(S(C)(=O)=O)cc2F)C(C)C)nc1-c1cnn(C)c1 [Compound 84] — 3-fold higher, 0.14 µM
- CNC(=O)CN(c1nc(Nc2cc(C)[nH]n2)c(OC)c(-c2cnn(C)c2)n1)c1ccc(S(C)(=O)=O)cc1F [Compound 85] — 200-fold higher, 9.2 µM
- COc1c(Nc2cc(C)[nH]n2)nc(N(C)c2ccc(S(=O)(=O)C(C)(C)C)cc2)nc1-c1cnn(C)c1 [Compound 86] — 2.6-fold higher, 0.12 µM
- COc1c(Nc2cc(C)[nH]n2)nc(N(C)c2ccc(S(=O)(=O)C(C)C)cc2)nc1-c1cnn(C)c1 [Compound 87] — 3.5-fold higher, 0.16 µM
- COCCN(c1nc(Nc2cc(C)[nH]n2)c(OC)c(-c2cnn(C)c2)n1)c1ccc(S(C)(=O)=O)cc1F [Compound 88] — 6.3-fold higher, 0.29 µM
- COc1c(Nc2cc(C)[nH]n2)nc(-n2ccc3cc(S(C)(=O)=O)ccc32)nc1-c1cnn(C)c1 [Compound 89] — 37-fold higher, 1.7 µM
- COC(=O)CN(c1nc(Nc2cc(C)[nH]n2)c(OC)c(-c2cnn(C)c2)n1)c1ccc(S(C)(=O)=O)cc1F [Compound 90] — 8-fold higher, 0.37 µM
- COc1c(Nc2cc(C)[nH]n2)nc(N(CC(=O)O)c2ccc(S(C)(=O)=O)cc2F)nc1-c1cnn(C)c1 [Compound 91] — 120-fold higher, 5.4 µM
